Measured values from PMC7139822, “Flumazenil-Insensitive Benzodiazepine Effects in Recombinant αβ and Neuronal GABAA Receptors” (Brain Sciences, 2020).

Target: T1, α1β2 receptor (Rattus norvegicus, UniProt P62813+P63138)
T1 construct: gene Gabra1; full-length rat subunit cDNAs by RT-PCR from brain mRNA; α in pcDNA3.1(+), β in pIRES2-EGFP (EGFP separate via IRES); HEK293; α:β cDNA 1:1, said to favor 2α:3β pentamer
Experiment: whole-cell patch clamp, HEK293
Format: cell-based
Details: 200 µM; positive allosteric modulator, non-classical site; co-applied with 0.1 μmol/L GABA; −60 mV; pH 7.4
Description: whole-cell patch clamp, HEK293 on α1β2 receptor

T1 sequence (P62813 28-455): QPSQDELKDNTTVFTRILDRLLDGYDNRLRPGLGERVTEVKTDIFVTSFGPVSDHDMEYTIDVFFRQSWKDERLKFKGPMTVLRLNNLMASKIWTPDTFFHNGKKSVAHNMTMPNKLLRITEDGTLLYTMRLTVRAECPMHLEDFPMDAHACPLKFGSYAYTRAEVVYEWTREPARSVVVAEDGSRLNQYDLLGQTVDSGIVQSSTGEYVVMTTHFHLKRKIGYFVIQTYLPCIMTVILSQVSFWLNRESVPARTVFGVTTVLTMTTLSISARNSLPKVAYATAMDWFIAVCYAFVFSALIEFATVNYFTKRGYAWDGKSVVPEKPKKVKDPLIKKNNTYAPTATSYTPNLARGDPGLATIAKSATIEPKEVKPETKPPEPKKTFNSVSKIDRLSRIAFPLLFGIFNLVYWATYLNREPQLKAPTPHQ
T1 sequence (P63138 26-474): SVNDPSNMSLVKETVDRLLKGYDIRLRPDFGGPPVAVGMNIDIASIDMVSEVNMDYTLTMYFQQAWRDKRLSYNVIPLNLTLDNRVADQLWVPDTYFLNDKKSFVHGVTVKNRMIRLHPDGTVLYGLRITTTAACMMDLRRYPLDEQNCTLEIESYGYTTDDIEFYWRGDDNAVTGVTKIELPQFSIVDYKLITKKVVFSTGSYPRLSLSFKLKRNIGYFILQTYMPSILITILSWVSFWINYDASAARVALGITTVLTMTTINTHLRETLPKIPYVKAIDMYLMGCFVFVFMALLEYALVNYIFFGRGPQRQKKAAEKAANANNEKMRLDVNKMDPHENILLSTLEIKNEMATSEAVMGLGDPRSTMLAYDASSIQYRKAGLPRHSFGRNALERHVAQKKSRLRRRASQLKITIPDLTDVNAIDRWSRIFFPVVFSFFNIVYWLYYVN

SMILES: Cc1ncc2n1-c1ccc(Cl)cc1C(c1ccccc1F)=NC2 [Midazolam]
- Potentiation of GABA Currents (%) / (Midazolam): 171.8 ± 13.8%
